In data set [1] the test system is intact pig skin. As to the kind of experiment: TEWL of intact pig skin under occlusion (Hilltop chamber), testosterone formulations. Type of data set: in vivo. The note with it: for barrier integrity / barrier permeability (TEWL) vs occlusion and TS controls, in words: Tables 9-11; for 6 h Post TEWL (x baseline): 6 h after removal of formulation.
Data set [2] concerns hairless mice. Kind of data set: TEWL (water permeability) 4 hours after application to acetone-treated skin. Type of data set: in vivo. To be noted: for stratum corneum water permeability (TEWL), increase vs vehicle in words: statistical significance vs vehicle, concentrations and skin treatment as in Tables 2-7.
Data set [3] has as its system hairless mice. As to the kind of experiment: Epidermal barrier disruption: marker (propylene glycol, cyclophenol) profile in stratum corneum by IR and tape-stripping. Type of data set: in vivo. The protocol:
To determine the epidermal barrier disruption by application of fluindostatin, an animal testing was conducted in the manner as follows: Hairless mice (two animals, B and C) were topically pretreated with fluindostatin for 7 days. In a control group, animals (two) were only treated with a vehicle. […] The parameters for the vehicle in all of the experiments herein are as follows: […] N=14. After treatment, the skin surface was cleaned and stratum corneum allowed to recover to its normal state of hydration for 2 hours. An IR spectrum of the hydrophilic marker compound, propylene glycol, was recorded, and a single tape-stripping was conducted at the treated skin site. Another spectrum was recorded followed by the removal of a. second tape strip. The same sequence was repeated 10 times. FIGS. 4A, 4B show the test results. […] In essentially the same manner, cyclophenol (CP) was used as a.lipophilic marker. Tape-stripping was repeated 7 times after application of fluindostatin.

Data set [4] concerns hairless mouse. As to the kind of experiment: TEWL recovery after oleic acid treatment. Type of data set: in vivo. The note with it: 30 μl of 1.5% fluindostatin or 0.25% TOFA in propylene glycol/ethanol 7:3, two hours after 5% oleic acid (FIG. 6A, 6B). The method, then: A female hairless mouse, aged 8 weeks, was treated with oleic acid. After oleic acid treatment, fluindostatin and/or 5-tetradecyloxy-2-furancarboxylic acid (TOFA) was applied to the animal.
TEWL (trans-epidermal water loss) was measured before and after treatment at convenient time intervals when the animal was alert. An Evaporimeter (ServoMed) was used.
First, TEWL of the left (LHS) and right (RHS) dorsal sides was measured. Then, the animal was anesthetized by 0.25 ml chloral hydrate (CH) IP injection. At t=0, an aliquot of 30 μl oleic acid solution (5% in propylene glycol/ethanol 7:3 (v/v)) was applied directly to both sides of the animal (˜1.5×3 cm) using a Hamilton syringe. […] TEWL was measured thereafter every 2 or 3 hours.

A short description of data set [5]: Transdermal LHRH delivery: plasma level by radioimmunoassay, ratio to vehicle. To be noted: ratio of LHRH plasma levels (RIA) after tested delivery compound(s) to vehicle; acid lipase vs its vehicle MES.
For data set [6] the following is noted: topical; literature (J. Clin. Invest. 88, 1991); cited from earlier work.
The mark [7] stands for this setting: solitary agent, Conc 0.5 %, acetone-treated skin.
[8] abbreviates: solitary agent, Conc 1.0 %, acetone-treated skin.
Where [9] appears, read: statistical significance vs vehicle, concentrations and skin treatment as in Tables 2-7.
The mark [10] stands for this setting: lidocaine, solitary enhancer Conc 0.5 %, acetone-treated skin.

Counter-ions that a name gives are not always drawn. Like-named read-outs stand apart in the source and are kept apart here.

For the compound `CCCCCCCC/C=C\CCCCCCCC(=O)O[C@H]1CC[C@@]2(C)C(=CC[C@H]3[C@@H]4CC[C@H]([C@H](C)CCCC(C)C)[C@@]4(C)CC[C@@H]32)C1` [CHO, Cholesterol Oleate], the “24 h TEWL (x baseline)” value in data set [1] (Table 9, 0.05 weight %, 24 h) stood at 1.53 x baseline. Moreover, in data set [1] (Table 9, 0.05 weight %), the “48 h TEWL (x baseline)” value turned out to be 2.16 x baseline and the “72 h TEWL (x baseline)” value was 2.71 x baseline. In addition, the “barrier integrity / barrier permeability (TEWL) vs occlusion and TS controls, in words” value in data set [1] (intact pig skin) was “comparable to or superior to both controls”.

`CCN(CC)CCCC(C)Nc1ccnc2cc(Cl)ccc12` (stereo not shown) [CQ, Chloroquine]: the “barrier integrity / barrier permeability (TEWL) vs occlusion and TS controls, in words” value in data set [1] (intact pig skin) is “increase barrier permeability to TS to a degree significantly superior to that provided by either control at all time points”.

Regarding `CC(C)n1c(/C=C/C(O)CC(O)CC(=O)O)c(-c2ccc(F)cc2)c2ccccc21` (stereo not shown) [Fluindostatin], the “TEWL (T = 4 hours)” value in data set [2] (4 h) is on record as 431 ± 46. In addition, the “stratum corneum water permeability (TEWL), increase vs vehicle in words” value in data set [2] is on record as “significantly increased it”. In data set [3] (PG and CP markers), the “disruption of the stratum corneum barrier (both marker data sets)” value is recorded as “caused significant disruption of the stratum corneum barrier”. In addition, the “cyclophenol (lipophilic marker) concentration profile in stratum corneum” value in data set [3] (tape-stripping repeated 7 times, vs vehicle control (FIG. 5A, 5B)) is reported as “a lower, constant concentration level of CP”. Also, in data set [3] (topical pretreatment 7 days, IR spectra over 10 tape-strippings, vs vehicle control (FIG. 4A, 4B)), the “propylene glycol (hydrophilic marker) concentration profile in stratum corneum” value was “lower absolute levels of PG in the stratum corneum, and a constant concentration level of PG”. Also, the “recovery of the barrier (TEWL) after oleic acid disruption” value in data set [4] is on record as “delay the recovery of the barrier”.

Take `CC[C@H](C)C(=O)O[C@H]1CCC=C2C=C[C@H](C)[C@H](CC[C@@H]3C[C@@H](O)CC(=O)O3)[C@H]21` [MEV, Mevastatin]: the “24 h TEWL (x baseline)” value was 1.75 x baseline in data set [1] (Table 9, 0.08 weight %, 24 h after first administration); 1.79 x baseline in data set [1] (Table 9, 0.12 weight %, 24 h); 1.55 ± 0.29 x baseline in data set [1] (Table 10, 0.006 weight %, 24 h); 1.93 ± 0.58 x baseline in data set [1] (Table 10, 0.10 weight %, 24 h); 1.47 ± 0.18 x baseline in data set [1] (Table 10, 0.25 weight %, 24 h). Also, the “48 h TEWL (x baseline)” value stood at 2.39 x baseline in data set [1] (Table 9, 0.08 weight %); 2.75 x baseline in data set [1] (Table 9, 0.12 weight %); 2.13 ± 0.38 x baseline in data set [1] (Table 10, 0.006 weight %); 3.77 ± 1.42 x baseline in data set [1] (Table 10, 0.10 weight %); 2.66 ± 1.00 x baseline in data set [1] (Table 10, 0.25 weight %). Also, the “72 h TEWL (x baseline)” value in data set [1] (Table 9, 0.08 weight %) came to 3.72 x baseline; in data set [1] (Table 9, 0.12 weight %), 3.72 x baseline; in data set [1] (Table 10, 0.006 weight %), 1.75 ± 0.21 x baseline; in data set [1] (Table 10, 0.10 weight %) it was 3.04 ± 0.86 x baseline; in data set [1] (Table 10, 0.25 weight %) it was 2.43 ± 0.51 x baseline. Moreover, the “6 h Post TEWL (x baseline)” value in data set [1] (Table 10, 0.006 weight %) came out at 1.24 ± 0.29 x baseline; in data set [1] (Table 10, 0.10 weight %), 2.25 ± 0.8 x baseline; in data set [1] (Table 10, 0.25 weight %) it was 1.90 ± 0.28 x baseline. Besides, in data set [1] (intact pig skin), the “barrier integrity / barrier permeability (TEWL) vs occlusion and TS controls, in words” value is “decreased barrier integrity to a substantial degree over that provided by either control”. Moreover, in data set [1] (intact pig skin, said to be shown in Table 11), the “capacity to deliver testosterone (TS) vs both controls, in words” value is recorded as “superior capacity of MEV to deliver testosterone (TS) over that of both controls”.

Consider `CCCCCCCC/C=C\CCCCCCCC(=O)NCCO` [N-oleoylethanolamine, N-Oleoylethanolamine], for which, in data set [2] (setting [7]), the “TEWL (T = 4 hours)” value was 720 ± 229. Also, the “stratum corneum water permeability (TEWL), increase vs vehicle in words” value in data set [2] is reported as “very significantly increased water permeability”. The “24 h TEWL (x baseline)” value in data set [1] (Table 9, 0.03 weight %, 24 h) was 1.46 x baseline; in data set [1] (Table 9, 0.10 weight %, 24 h) it was 1.67 x baseline. The “48 h TEWL (x baseline)” value in data set [1] (Table 9, 0.03 weight %) was found to be 2.25 x baseline; in data set [1] (Table 9, 0.10 weight %), 2.45 x baseline. Moreover, the “72 h TEWL (x baseline)” value is 3.15 x baseline in data set [1] (Table 9, 0.03 weight %) and 3.68 x baseline in data set [1] (Table 9, 0.10 weight %). Moreover, in data set [1] (intact pig skin), the “barrier integrity / barrier permeability (TEWL) vs occlusion and TS controls, in words” value was “increases barrier permeability in a dose response manner”.

Consider `CCCCCCCCCCCCCCOc1ccc(C(=O)O)o1` [TOFA, 5-tetradecyloxy-2-furancarboxylic acid], for which the “TEWL (T = 4 hours)” value in data set [2] (setting [8]) is on record as 520 ± 31. Further, the “stratum corneum water permeability (TEWL), increase vs vehicle in words” value in data set [2] is given as “very significantly increased water permeability”. Further, the “recovery of the barrier (TEWL) after oleic acid disruption” value in data set [4] is “delay the recovery of the barrier”.

Take `CC(C)CCC[C@@H](C)[C@H]1CC[C@H]2[C@@H]3CC=C4C[C@@H](OS(=O)(=O)O)CC[C@]4(C)[C@H]3CC[C@]12C` [cholesterol sulfate, Cholesterol sulfate]: in data set [2] (setting [8]), the “TEWL (T = 4 hours)” value stood at 508 ± 169. The “stratum corneum water permeability (TEWL), increase vs vehicle in words” value in data set [2] is “significantly increased it”. The “lidocaine delivery, increase vs vehicle in words” value (“lidocaine delivery, increase” below) under setting [9] is listed as “statistically very significant increase in lidocaine delivery”.

As to `O[C@H]1[C@H](O)[C@@H](O)[C@@H]2O[C@@H]2[C@@H]1O` [conduritol-β-epoxide, Conduritol-β-epoxide], the “water permeability (TEWL), increase vs vehicle in words” value in data set [2] (frequently applied to intact skin) is “statistically significant increased lidocaine delivery and water permeability”. Also, the “TEWL (T = 4 hours)” value in data set [2] (solitary agent, Conc 4.0 %, intact skin, TID, total 7-8 doses) was 184 ± 39; in data set [2] (solitary agent, Conc 4.0 %, single application, acetone-treated skin), 253 ± 33. The “stratum corneum water permeability (TEWL), increase vs vehicle in words” value in data set [2] was “failing even nearly significantly to increase either water permeability or lidocaine delivery”.

As for `CCCC[C@@H](C)[C@@H](OC(=O)C[C@@H](CC(=O)O)C(=O)O)[C@H](C[C@@H](C)C[C@H](O)CCCC[C@@H](O)C[C@H](O)[C@H](C)N)OC(=O)C[C@@H](CC(=O)O)C(=O)O` [fumonisin B1, Fumonisin B1], the “LHRH Delivery Ratio vs. Vehicle” value in data set [5] turned out to be 3.8. The “TEWL (T = 4 hours)” value in data set [2] (setting [7]) came to 440 ± 149. Moreover, under setting [10], the “Plasma Conc. (% dose/ml plasma)” value is 0.24 ± 0.03 % dose/ml plasma and the “Total Body Conc. (%)” value is on record as 14.58 ± 0.73%. Also, the “lidocaine delivery, increase” value under setting [9] is given as “very significantly increased lidocaine delivery”.

Regarding `CC[C@H](C)C(=O)O[C@H]1C[C@@H](C)C=C2C=C[C@H](C)[C@H](CC[C@@H]3C[C@@H](O)CC(=O)O3)[C@H]21` [lovastatin, Lovastatin], the “recovery of barrier function, assessed as transepidermal water loss” value in data set [6] is on record as “impair the recovery of barrier function”.

Turning to `N[C@@H](CCl)C(=O)O` [β-chloroalanine, β-Chloroalanine], in data set [2] (setting [8]), the “TEWL (T = 4 hours)” value was 263 ± 35. The “stratum corneum water permeability (TEWL), increase vs vehicle in words” value in data set [2] is “did not increase stratum corneum water permeability”. Moreover, the “recovery of barrier function, assessed as transepidermal water loss” value in data set [6] is “slow barrier recovery”. Moreover, the “lidocaine delivery, increase” value under setting [9] was “significant increase”.

In the case of Bromophenacylbromide, in data set [2] (solitary agent on intact skin), the “water permeability (TEWL), increase vs vehicle in words” value is reported as “but not water permeability”. The “TEWL (T = 4 hours)” value in data set [2] (solitary agent, Conc 0.15 %, intact skin) is recorded as 98 ± 47; in data set [2] (solitary agent, Conc 0.2 %, acetone-treated (prepermeabilized) skin), 690 ± 177. Besides, the “stratum corneum water permeability (TEWL), increase vs vehicle in words” value in data set [2] is “very significant increases of both lidocaine delivery and water permeability”.

As to Gramicidin D [GD], the “barrier integrity / barrier permeability (TEWL) vs occlusion and TS controls, in words” value in data set [1] (intact pig skin) is “increase barrier permeability to TS to a degree significantly superior to that provided by either control at all time points”.

“N-Palmitoyl-DL-dihydroxysphingosine [N-palmitoyl-DL-hydroxysphingosine]”: the “TEWL (T = 4 hours)” value in data set [2] (setting [7]) came out at 793 ± 124. Besides, the “stratum corneum water permeability (TEWL), increase vs vehicle in words” value in data set [2] is recorded as “very significantly increased water permeability”. For the same compound, where the note is “mouse, in vivo”, the “Plasma Conc. (% dose/ml plasma)” value was 0.21 ± 0.03 % dose/ml plasma; the “Total Body Conc. (%)” value is recorded as 6.88 ± 0.69%; the “lidocaine delivery, increase” value is “significantly increased it”.

The values above are taken from patent publication US6562606B1, “Methods and compositions for disrupting the epithelial barrier function” (The Regents of the University of California, priority 1993, dated 2003).
